The compounds below were run on TEAD responsive promoter element (8XGTIIC-Luciferase; YAP1-TEAD and TAZ-TEAD activity) (assay: TEAD-Luciferase reporter assay). Conditions: Homo sapiens; luciferase activity in tumor cell lines with stable integration of the 8XGTIIC-Luciferase construct; 10 doses between 1 and 10000 nM, 48 hrs.
Format: cell-based
Description: TEAD-Luciferase Reporter Assay
Luciferase-based gene reporter assays were used, employing the TEAD responsive promoter element that are stably integrated to different human tumor cell lines in order to monitor YAP1-TEAD and TAZ-TEAD activity and to study YAP1/TAZ-TEAD activity modulation by small molecule compounds. Luciferase-based gene reporter assays employing the GAPDH promoter element and stably integrated to different human tumor cell lines are used as counter screen control cell lines.
Tumor cell lines with stable integration of the 8XGTIIC-Luciferase construct (Dupont et al., Nature 2011) or the GAPDH-Luciferase control plasmid, are seeded in culture medium in 96-well plates at a density of 8000 cells/well. Following an overnight incubation in a 37° C., 5% CO2 growth chamber, cells are treated with compounds described above at 10 doses ranging between 1 and 10000 nM for 48 hrs. After compound incubation, cells are lysed with Bright-Glo Luciferase Assay System (Promega E2620) and luciferase activity is measured using a luminescent plate reader.
The inhibitory activity of the compounds with respect to luciferase activity is given by the concentration which inhibits 50% of activity of non-treated cells. IC50s are determined with a nonlinear regression model on XLfit software analysis (IDBS, UK).
For `C=CC(=O)Nc1ccc2c(c1)c(CO)cn2-c1ccc(C(F)(F)F)cc1` [Example 82, N-(3-(hydroxymethyl)-1-(4-(trifluoromethyl)phenyl)-1H-indol-5-yl)acrylamide], the IC50 was 0.158 µM.
`C=CC(=O)Nc1ccc2c(c1)c(C(N)=O)cn2Cc1cccc(C(F)(F)F)c1` [Example 83, 5-Acrylamido-1-(3-(trifluoromethyl)benzyl)-1H-indole-3-carboxamide] showed an IC50 of 1.79 µM.
Compound `C=CC(=O)Nc1ccc2c(c1)c(C(N)=O)cn2-c1ccc(C(F)(F)F)cc1` [Example 84, 5-Acrylamido-1-(4-(trifluoromethyl)phenyl)-1H-indole-3-carboxamide] has an IC50 of 0.62 µM.

From US12692230B2, “(1 h-indol-5-yl)acrylamide derivatives as inhibitors of TEAD proteins and the hippo-YAP1/TAZ signaling cascade for the treatment of cancer” (Sanofi, priority 2020, dated 2026)
